Assay results published in patent US20240051997A1, “SAP AND PEPTIDOMIMETIC COMPOSITIONS FOR REDUCING SYMPTOMS OF INFLAMMATION” (Arch Biosurgery, Inc., priority 2018, published 2024).

Experiments:
[1] = tested on: kidney inflammation, ED-1 reactivity (macrophage activation); experiment: Acute kidney injury model (stab wound plus cautery), ED-1 immunohistochemistry; format: in vivo, Sprague-Dawley rat; conditions: rat kidney, 3% solution of EARA-16 or 1% solution of KS
Protocol: The anti-inflammatory effects of EARA-16 (SEQ ID NO: 89) and a RADA-kidney specific peptide conjugate (Ac-(RADA)3CVSVPQAL-CONH2; SEQ ID NO: 413; referred to as KS) were examined. Specifically, the effects of EARA-16 and KS on inflammation caused by burn damage were examined using an acute kidney injury model. Levels of inflammation were assayed through immuno-histochemical ED-1 reactivity (ED-1 serves as a marker of macrophage activation).
Adult Sprague-Dawley rats were anesthetized and their intraperitoneal cavities were opened under aseptic conditions. For each animal, the kidney was exposed and then subjected to a stab wound injury.
Cautery was then performed at the injury site to stop bleeding. After cauterization, the injury site was either left untreated and the animals were closed or the site was treated with a 3% solution of EARA-16 (SEQ ID NO: 89) or a 1% solution of KS (SEQ ID NO: 413). The animals were allowed to survive for up to 14 days. The animals were then sacrificed and their kidneys were harvested and sectioned. An ED-1 antibody was used to determine the level of inflammation and activation of macrophages in the kidney via immunohistochemistry (IHC). For each experimental condition, n=3 (max).
Animals receiving no injury, but in which saline was applied to the kidney in a similar location to that of the experimental animals, were used as controls (n=8).

[2] = tested on: liver inflammation, ED-1 reactivity (macrophage activation); experiment: Pig liver injury model (punch biopsy), ED-1 immunohistochemistry; format: in vivo; conditions: 8 mm punch biopsy, day 7 post-treatment, compared to saline or cauterization controls
Protocol: (§1) The anti-inflammatory effects of EARA-16 (SEQ ID NO: 89) and RADA-16 (SEQ ID NO: 1) SAPs were examined using a liver injury model. Levels of inflammation were assayed through immuno-histochemical ED-1 reactivity (ED-1 serves as a marker of macrophage activation).
(§2) Pigs or adult Sprague-Dawley rats were anesthetized and their intraperitoneal cavities were opened under aseptic conditions. For each animal, the liver was exposed and then subjected to an 8 mm (pig) or 4 mm (rat) punch biopsy.
(§3) The punch sites were then cauterized or treated with acid (for pH control), saline, or RADA-16 (SEQ ID NO: 1) or EARA-16 (SEQ ID NO: 89) solutions. The animals were allowed to survive for up to 14 days. The animals were then sacrificed and their livers were harvested and sectioned. An ED-1 antibody was used to determine the level of inflammation and activation of macrophages in the liver via immunohistochemistry (IHC).

[3] = tested on: liver inflammation, ED-1 reactivity (macrophage activation); experiment: Rat liver injury model (punch biopsy), ED-1 immunohistochemistry; format: in vivo, Sprague-Dawley rat; conditions: 4 mm punch biopsy, all time-points observed, compared to saline or acid controls
Protocol: as §1, §2, §3

[4] = tested on: olfactory bulb inflammation, GFAP (reactive astrocytes); experiment: Olfactory bulb injury model (transection), GFAP immunohistochemistry; format: in vivo, Sprague-Dawley rat; conditions: rat olfactory bulb, days 2-14
Protocol: The anti-inflammatory effects of EARA-16 (SEQ ID NO: 89) and RADA-16 (SEQ ID NO: 1) were examined using an olfactory bulb injury model. Levels of inflammation were assayed through immunohistochemical staining for glial fibrillary acidic protein (GFAP) as an indicator of reactive astrocytes.
In brief, the olfactory bulbs of adult Sprague-Dawley rats were unilaterally transected and the cuts were then treated with either saline as a control, or one of RADA-16 (SEQ ID NO: 1) or EARA-16 (SEQ ID NO: 89) solutions (each used at 1% and 3%). The SAP materials were injected into the cuts post transection at the time of surgery. After 2, 7 or 14 days, the animals were sacrificed.
A more detailed protocol is as follows: adult Sprague-Dawley rats were anesthetized with a mixture of ketamine (80 mg/kg, i. p.) and xylazine (8 mg/kg, i. p.). The head was shaved and a thorough disinfection of the head surface was carried out with iodine 5% solution. The bilateral olfactory bulbs were exposed by drilling two burr holes (2 mm diameter, 8 mm anterior to the bregma) on either side at a distance of 2 mm from the midline of the frontal bone in the region overlying the olfactory bulbs. A cataract knife with a blunted end and one sharpened edge was used for surgery. The cut was performed on the middle of olfactory bulb. The blunted edge of the knife was inserted along the middle line of the olfactory bulb to prevent damage of the sagittal sinus, until the tip of the knife lightly touched the bottom of the brain without penetration of the dura. The knife was then moved laterally to transect the bulb until it reached the lateral edge of the hole. The knife was then rotated and pulled out to have a complete cut of the bulb at lateral side. This procedure was modified from the method described in several previous studies attempting to isolate the olfactory bulb from other parts of the brain (Ahrens & Freeman 2001; Allison 1953; Chaput 1983; Freeman 1968; Koliatsos et al 2004; Munirathinam et al 1997).
After performing the cut, one of the solutions was used to treat the injury site: either 10 μl saline (control group) or the EARA-16 (SEQ ID NO: 89) or RADA-16 (SEQ ID NO: 1) SAP (at a concentration of 1% and 3%) was injected evenly into the wound site using a self-constructed hydraulic pressure injection system without micro syringe. This technique was modified from similar methods as described by Bullier and others (Bullier et al 1980; Fish & Rhoades 1981; Kratskin et al 1997; Meyers & Snow 1981; Price et al 1977; Shipley 1982). Care was taken to control the speed of the injection of the saline or the SAP. After the injection, the wound was closed and the animals were placed in a warm place for recovery before they were brought back to their home cages. […]

Substance	reduction in inflammation compared to cautery only (ED-1 IHC) ([1]; 7-day survival)	reduction in inflammation compared to cautery only (ED-1 IHC) ([1]; 14-day survival)	levels of inflammation in liver (ED-1 IHC) [2]	levels of inflammation in liver (ED-1 IHC) [3]	time course of reactive astrocyte activation / inflammation (GFAP) ([4]; 1% solution)	time course of reactive astrocyte activation / inflammation (GFAP) ([4]; 3% solution)
Ac-(RADA)3CVSVPQAL-CONH2 (Ac-RADARADARADACVSVPQAL-NH2) [KS, RADA-kidney specific peptide conjugate]	68%	66%	–	–	–	–
EARAEARAEARAEARA [EARA-16, self-assembling peptide]	80%	66%	markedly reduced the levels of inflammation	markedly reduced the levels of inflammation	increased activation of reactive astrocytes on day 7 which subsequently reduced by day 14	increasing inflammation levels, but at a much slower rate than the saline controls
